# Measurements from patent US20220386611A1, “NOVEL HETEROARYL-TRIAZOLE COMPOUNDS AS PESTICIDES” (Bayer Aktiengesellschaft, priority 2019, published 2022).
# Assays:
# Format in all cases: in vivo
# [1] = test system: fall armyworm larvae (Spodoptera frugiperda); experiment: Spodoptera frugiperda spray test; settings: in Zea mays, 168 h
# Description: Spodoptera frukiperda—Spray Test
# (§1) Solvent: 78.0 parts by weight acetone • 1.5 parts by weight dimethylformamide
# (§2) Emulsifier: alkylarylpolyglycol ether
# (§3) To produce a suitable preparation of active compound, 1 part by weight of active compound is mixed with the stated amount of solvents and is diluted with water, containing an emulsifier concentration of 1000 ppm, to the desired concentration. Further test concentrations are prepared by dilution with emulsifier containing water.
# Maize (Zea mays) leaf sections are sprayed with a preparation of the active ingredient of the desired concentration. Once dry, the leaf sections are infested with fall armyworm larvae (Spodoptera frugiperda).
# After 7 days mortality in % is determined. 100% means all caterpillars have been killed and 0% means none of the caterpillars have been killed.
# [2] = test system: adult engorged female ticks (Rhipicephalus microplus); experiment: Rhipicephalus (Boophilus) microplus injection test; settings: 168 h, after 7 days, read-out: efficacy (infertile eggs); for pest or weed control at 0.004 mg: 4 μg/animal; for pest or weed control at 0.02 mg: 20 μg/animal
# Description: Rhipicephalus (Boophilus) microplus—Injection Test
# (§4) Solvent: dimethyl sulfoxide
# To produce a suitable preparation of active compound, 10 mg of active compound are dissolved in 0.5 mL solvent, and the concentrate is diluted with solvent to the desired concentration.
# Five adult engorged female ticks (Rhipicephalus microplus) are injected with 1 μL compound solution into the abdomen. The ticks are transferred into replica plates and incubated in a climate chamber.
# After 7 days egg deposition of fertile eggs is monitored. Eggs where fertility is not visible are stored in a climate chamber till hatching after about 42 days. An efficacy of 100% means all eggs are infertile; 0% means all eggs are fertile.
# [3] = test system: Rhipicephalus microplus larvae (strain Parkhurst, resistant against synthetic pyrethroids); experiment: Rhipicephalus (Boophilus) microplus in-vitro contact test, larval cattle tick; settings: 5 μg/cm^2 (=500 g/ha), after 48 hours, read-out: efficacy (larvae dead or moribund)
# Description: Rhipicephalus (Boophilus) Microplus—In-Vitro Contact Tests Larval Cattle Tick (Strain Parkhurst, Resistant Against Synthetic Pyrethroids)
# (§5) 9 mg compound is solved in 1 mL acetone and diluted with acetone to the desired concentration. 250 μL of the test solution is filled in 25 mL glass test tubes and homogeneously distributed on the inner walls by rotation and tilting on a shaking device (2 h at 30 rpm). With a compound concentration of 900 ppm, an inner surface of 44.7 cm^2 and a homogeneous distribution, a dose of 5 μg/cm^2 is achieved.
# After the solvent has evaporated, each test tube is filled with 20-50 cattle tick larvae (Rhipicephalus microplus), closed with a perforated lid and incubated in a horizontal position at 85% relative humidity and 27° C. in an incubator. After 48 hours efficacy is determined. The larvae are patted on the ground of the tubes and negative geotactic behaviour is recorded.
# An efficacy of 100% means all larvae are dead or moribund; 0% means no larvae are dead or moribund.
# [4] = test system: larvae of the banded cucumber beetle (Diabrotica balteata); experiment: Diabrotica balteata spray test; settings: 168 h, 100 g/ha (=32 μg/well), after 7 days, wheat seeds, read-out: efficacy (seedlings grown like untreated, uninfected control)
# Description: Diabrotica balteata—spray test
# Solvent: 78.0 parts by weight of acetone
# 1.5 parts by weight of dimethylformamide
# as §2
# To produce a suitable preparation of active compound, 1 part by weight of active compound is mixed with the stated amount of solvent, and the concentrate is diluted with water, containing an emulsifier concentration of 1000 ppm, to the desired concentration. Further test concentrations are prepared by dilution with emulsifier containing water.
# Soaked wheat seeds (Triticum aestivum) are placed in a multiple well plate filled with agar and some water and are incubated for 1 day to germinate (5 seeds per well). The germinated wheat seeds are sprayed with a test solution containing the desired concentration of the active ingredient. Afterwards each unit is infected with 10-20 larvae of the banded cucumber beetle (Diabrotica balteata).
# After 7 days efficacy in % is determined. 100% means all the seedlings have grown up like in the untreated, uninfected control; 0% means none of the seedlings have grown.
# [5] = test system: Musca domestica strain WHO-N; experiment: Musca domestica test (MUSCDO surface treatment & contact assay); settings: surface concentration 20 mg/m^2, 30 minutes exposure, 24 hours after contact, read-out: efficacy (mortality)
# Description: Musca domestica Test (MUSCDO Surface Treatment & Contact Assay)
# (§6) Solvent: Aceton+2000 ppm rapeseed oil methyl ester (RME)
# In order to produce a sufficient, active ingredient containing solution it is necessary to solve the test compound in the solvent-mix (acetone at 2 mg/ml/RME 2000 ppm). This solution is pipetted onto a glazed tile and after evaporation of the acetone, adult flies of the species Musca domestica strain WHO-N are placed onto the dried surface. The exposure time is 30 minutes. Mortality in percent (%) is determined 24 hours after contact of the insects to the treated surface. 100% mortality means that all tested insects are dead, whereas 0% means that no insect died.
# [6] = test system: adult brown dog ticks (Rhipicephalus sanguineus); experiment: Rhipicephalus sanguineus in-vitro contact test with adult brown dog ticks; settings: 5 μg/cm^2 (=500 g/ha), after 48 hours, read-out: efficacy (ticks dead or moribund)
# Description: Rhipicephalus sanguineus—In-Vitro Contact Tests with Adult Brown Dog Ticks
# as §5
# After the solvent has evaporated, each test tube is filled with 5-10 adult brown dog ticks (Rhipicephalus sanguineus), closed with a perforated lid and incubated in a lying position at room temperature and relative humidity. After 48 hours efficacy is determined. The ticks are patted on the ground of the tubes and are incubated on a heating plate at 45-50° C. for at most 5 minutes. Immotile or uncoordinated moving ticks, which are not able to escape the heat by climbing upwards, are marked as dead or moribund.
# An efficacy of 100% means all ticks are dead or moribund; 0% means no ticks are dead or moribund.
# [7] = test system: Aedes aegypti strain MONHEIM; experiment: Aedes aegypti test (AEDSAE surface treatment & contact assay); settings: 24 hours after contact, read-out: efficacy (mortality)
# Description: Aedes Aegypti Test (AEDSAE Surface Treatment & Contact Assay)
# as §6
# In order to produce a sufficient, active ingredient containing solution it is necessary to solve the test compound in the solvent-mix (acetone at 2 mg/ml/RME 2000 ppm). This solution is pipetted onto a glazed tile and after evaporation of the acetone, adult mosquitoes of the species Aedes aegypti strain MONHEIM are placed onto the dried surface. The exposure time is 30 minutes. Mortality in percent (%) is determined 24 hours after contact of the insects to the treated surface. 100% mortality means that all tested insects are dead, whereas 0% means that no insect died.
# [8] = test system: green peach aphid (Myzus persicae); experiment: Myzus persicae oral test; settings: 120 h
# Description: Solvent: 100 parts by weight acetone
# To produce a suitable preparation of active compound, 1 part by weight of active compound is mixed with the stated amount of solvent, and the concentrate is diluted with water to the desired concentration. 50 μL compound solution is filled in microtiter plates and 150 μL IPL41 insect medium (33%+15% sugar) is added to obtain a total volume of 200 μL per well. Afterwards the plates are sealed with parafilm through which a mixed population of the green peach aphid (Myzus persicae) can suck on the compound preparation.
# (§7) After 5 days mortality in % is determined. 100% means all aphids have been killed and 0% means none of the aphids have been killed.
# [9] = test system: adult unfed cat fleas (Ctenocephalides felis); experiment: Ctenocephalides felis oral test; settings: 48 h
# Description: Ctenocephalides felis—Oral Test
# as §4
# To produce a suitable preparation of active compound, 10 mg of active compound are dissolved in 0.5 ml solvent, and the concentrate is diluted with cattle blood to the desired concentration.
# Approximately 20 adult unfed cat fleas (Ctenocephalides felis) are placed in flea chambers. The blood chamber, sealed with parafilm on the bottom, are filled with cattle blood supplied with compound solution and placed on the gauze covered top of the flea chamber, so that the fleas are able to suck the blood. The blood chamber is heated to 37° C. whereas the flea chamber is kept at room temperature.
# After 2 days mortality in % is determined. 100% means all the fleas have been killed; 0% means none of the fleas have been killed.
# [10] = test system: adult cat fleas (Ctenocephalides felis); experiment: Ctenocephalides felis in-vitro contact test, adult cat flea; settings: 5 μg/cm^2 (=500 g/ha), after 48 hours, read-out: efficacy (fleas dead or moribund)
# Description: Ctenocephalides felis—In-Vitro Contact Tests Adult Cat Flea 9 mg compound is solved in 1 mL acetone and diluted with acetone to the desired concentration. 250 μL of the test solution is filled in 25 mL glass test tubes and homogeneously distributed on the inner walls by rotation and tilting on a shaking device (2 h at 30 rpm). With a compound concentration of 900 ppm, an inner surface of 44.7 cm^2 and a homogeneous distribution, a dose of 5 μg/cm^2 is achieved.
# After the solvent has evaporated, each test tube is filled with 5-10 adult cat fleas (Ctenocephalidesfelis), closed with a perforated lid and incubated in a lying position at room temperature and relative humidity.
# After 48 hours efficacy is determined. The fleas are patted on the ground of the tubes and are incubated on a heating plate at 45-50° C. for at most 5 minutes. Immotile or uncoordinated moving fleas, which are not able to escape the heat by climbing upwards, are marked as dead or moribund.
# An efficacy of 100% means all fleas are dead or moribund; 0% means no fleas are dead or moribund.
# [11] = test system: green peach aphid (Myzus persicae); experiment: Myzus persicae spray test; settings: foliar, 120 h, after 5 days, Chinese cabbage leaf disks
# Description: Myzus persicae—spray test
# as §1, §2, §3
# Chinese cabbage (Brassica pekinensis) leaf disks infected with all instars of the green peach aphid (Myzus persicae), are sprayed with a preparation of the active ingredient of the desired concentration.
# as §7
Compound,mortality at 100 g/ha [1],pest or weed control at 0.004 mg [2],pest or weed control at 0.02 mg [2],pest or weed control at 5 µg/cm2 [3],"pest or weed control at 32 µg/disc, 100 g/ha [4]",mortality at 20 mg/m2 [5],"pest or weed control at 5 µg/cm2, 500 g/ha [6]","mortality at 4 mg/m2 ([7]; surface concentration 4 mg/m^2, 30 minutes exposure)","mortality at 20 mg/m2 ([7]; surface concentration 20 mg/m^2, 30 minutes exposure)",mortality at 4 ppm [8],mortality at 100 ppm [9],"pest or weed control at 5 µg/cm2, 500 g/ha [10]",mortality at 100 g/ha [11]
"CC(NC(=O)c1cc(Cl)cc(C(F)(F)F)c1)c1nc(Cl)nn1-c1ccc(Cl)cn1 (racemic) [Example I-017, 3-chloro-N-[1-[5-chloro-2-(5-chloro-2-pyridyl)-1,2,4-triazol-3-yl]ethyl]-5-(trifluoromethyl)benzamide]",83%,100%,100%,100%,100%,–,–,–,–,–,–,–,–
"CC(NC(=O)c1cc(Cl)cc(C(F)(F)F)c1)c1nc(I)nn1-c1ccc(Cl)cn1 (racemic) [Example I-019, 3-chloro-N-[1-[2-(5-chloro-2-pyridyl)-5-iodo-1,2,4-triazol-3-yl]ethyl]-5-(trifluoromethyl)benzamide]",100%,100%,100%,90%,100%,80 to 100%,–,–,–,–,–,–,–
CC(NC(=O)c1cc(Cl)cc(C(F)(F)F)c1)c1nc(Cl)nn1-c1ncccn1 (stereo not shown) [Example I-004],100%,100%,100%,100%,100%,–,100%,80 to 100%,80 to 100%,100%,90%,–,–
CC(NC(=O)c1cc(Cl)cc(Cl)c1)c1nc(Cl)nn1-c1ncccn1 (stereo not shown) [Example I-005],100%,100%,100%,–,100%,–,100%,–,–,–,100%,–,–
CC(NC(=O)c1cc(Cl)nc(Cl)c1)c1nc(Cl)nn1-c1ncccn1 (stereo not shown) [Example I-006],–,80%,–,100%,100%,–,80%,–,–,90%,100%,100%,90%
CC(NC(=O)c1cncc(C(F)(F)F)c1)c1nc(Br)nn1-c1ncccn1 (stereo not shown) [Example I-015],–,100%,–,100%,80%,–,–,–,–,–,100%,–,–
CC(NC(=O)c1cc(Br)cc(C(F)(F)F)c1)c1nc(I)nn1-c1ncccn1 (stereo not shown) [Example I-022],100%,–,–,100%,100%,–,80%,–,–,100%,90%,–,–
CC(NC(=O)c1cc(Br)cc(Br)c1)c1nc(I)nn1-c1ncccn1 (stereo not shown) [Example I-023],–,–,–,–,–,–,–,–,–,–,100%,–,–
